Results published in patent US11053204B2, “Pyrimidinyloxy benzene derivatives as herbicides” (FMC Corporation, priority 2015, dated 2021).

Assays:
Assay type in all cases: in vivo
[1] = tested on: barnyardgrass (Echinochloa crus-galli); assay: Test A preemergence, visual injury rating; conditions: Echinochloa crus-galli, pre-emergence, 240 h, 0 to 100 scale (0 no effect, 100 complete control), read-out: Barnyardgrass plant response rating
Outline: (§1)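 Greenhouse pot test, loam/sand soil. Formulation: non-phytotoxic solvent mix plus surfactant. Pre: directed spray onto soil after sowing. Post: plants at 1–2 leaf, 2–10 cm. Rated visually vs untreated controls at ~10 d, 0 (no effect) to 100 (complete control).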

kochia (Kochia scoparia) [2] = assay: Test A preemergence, visual injury rating; conditions: Bassia scoparia, pre-emergence, 240 h, 0 to 100 scale (0 no effect, 100 complete control), read-out: Kochia plant response rating
Outline: as §1

[3] = tested on: barnyardgrass (Echinochloa crus-galli); assay: Test C postemergence, plant response rating; conditions: Echinochloa crus-galli, post-emergence
Outline: (§2)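 Preemergence: seeds sown in loam–sand blend or silt loam and sprayed with test chemicals in a non-phytotoxic surfactant-containing solvent. Postemergence: potted plants at 2–18 cm (1–4-leaf stage) sprayed with the same formulation. After 13–15 d in greenhouse, visual rating versus controls on 0 (no effect) to 100 (complete control) scale.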

[4] = tested on: blackgrass (Alopecurus myosuroides); assay: Test C postemergence, plant response rating; conditions: Alopecurus myosuroides, post-emergence
Outline: as §2

[5] = tested on: chickweed (common chickweed, Stellaria media); assay: Test C postemergence, plant response rating; conditions: Stellaria media, post-emergence
Outline: as §2

corn (Zea mays) = assay: Test C postemergence, plant response rating; conditions: Zea mays, post-emergence
Outline: as §2

[6] = tested on: crabgrass, large (large crabgrass, Digitaria sanguinalis); assay: Test C postemergence, plant response rating; conditions: Digitaria sanguinalis, post-emergence
Outline: as §2

[7] = tested on: foxtail, giant (giant foxtail, Setaria faberii); assay: Test C postemergence, plant response rating; conditions: Setaria faberi, post-emergence
Outline: as §2

kochia (Kochia scoparia) [8] = assay: Test C postemergence, plant response rating; conditions: Bassia scoparia, post-emergence
Outline: as §2

[9] = tested on: lambsquarters (Chenopodium album); assay: Test C postemergence, plant response rating; conditions: Chenopodium album, post-emergence
Outline: as §2

[10] = tested on: morningglory (Ipomoea coccinea); assay: Test C postemergence, plant response rating; conditions: Ipomoea, post-emergence
Outline: as §2

[11] = tested on: nutsedge, yellow (yellow nutsedge, Cyperus esculentus); assay: Test C postemergence, plant response rating; conditions: Cyperus, post-emergence
Outline: as §2

[12] = tested on: oat, wild (wild oat Avena fatua); assay: Test C postemergence, plant response rating; conditions: Avena fatua, post-emergence
Outline: as §2

[13] = tested on: oilseed rape (Brassica napus); assay: Test C postemergence, plant response rating; conditions: Brassica napus, post-emergence
Outline: as §2

[14] = tested on: ryegrass, Italian (Italian ryegrass, Lolium multiflorum); assay: Test C postemergence, plant response rating; conditions: Lolium multiflorum, post-emergence
Outline: as §2

soybean (Glycine max) = assay: Test C postemergence, plant response rating; conditions: Glycine max, post-emergence
Outline: as §2

[15] = tested on: wheat (winter wheat, Triticum aestivum); assay: Test C postemergence, plant response rating; conditions: Triticum aestivum, post-emergence
Outline: as §2

[16] = 62 g ai/ha, scale 0 to 100 (0 no effect, 100 complete control)
[17] = 125 g ai/ha, scale 0 to 100 (0 no effect, 100 complete control)

## C=CCOC(=O)c1c(Br)cccc1Oc1ncc(Cl)cn1 [Compound 22, 2-propen-1-yl 2-bromo-6-[(5-chloro-2-pyrimidinyl)oxy]benzoate]
[1]; 125 g ai/ha
  pest or weed control at 125 g/ha: 40%
[1]; 500 g ai/ha
  pest or weed control at 500 g/ha: 100%
Kochia (Kochia scoparia) [2]; 125 g ai/ha
  pest or weed control at 125 g/ha: 30%
Kochia (Kochia scoparia) [2]; 500 g ai/ha
  pest or weed control at 500 g/ha: 100%
[3]; 16 g ai/ha, scale 0 to 100
  pest or weed control at 16 g/ha: 5%
[3]; 31 g ai/ha, scale 0 to 100
  pest or weed control at 31 g/ha: 5%
[3]; [16]
  pest or weed control at 62 g/ha: 10%
[3]; [17]
  pest or weed control at 125 g/ha: 10%
[4]; 16 g ai/ha, scale 0 to 100
  pest or weed control at 16 g/ha: 0%
[4]; 31 g ai/ha, scale 0 to 100
  pest or weed control at 31 g/ha: 0%
[4]; [16]
  pest or weed control at 62 g/ha: 0%
[4]; [17]
  pest or weed control at 125 g/ha: 5%
[5]; 16 g ai/ha, scale 0 to 100
  pest or weed control at 16 g/ha: 20%
[5]; 31 g ai/ha, scale 0 to 100
  pest or weed control at 31 g/ha: 60%
[5]; [16]
  pest or weed control at 62 g/ha: 65%
[5]; [17]
  pest or weed control at 125 g/ha: 60%
Corn (Zea mays); 16 g ai/ha, scale 0 to 100
  Corn plant response rating (crop injury, 0 = no effect, 100 = complete kill) at 16 g/ha: 5%
Corn (Zea mays); 31 g ai/ha, scale 0 to 100
  Corn plant response rating (crop injury, 0 = no effect, 100 = complete kill) at 31 g/ha: 5%
Corn (Zea mays); [16]
  plant injury at 62 g/ha: 5%
Corn (Zea mays); [17]
  plant injury at 125 g/ha: 15%
[6]; 16 g ai/ha, scale 0 to 100
  pest or weed control at 16 g/ha: 10%
[6]; 31 g ai/ha, scale 0 to 100
  pest or weed control at 31 g/ha: 15%
[6]; [16]
  pest or weed control at 62 g/ha: 25%
[6]; [17]
  pest or weed control at 125 g/ha: 25%
[7]; 16 g ai/ha, scale 0 to 100
  pest or weed control at 16 g/ha: 10%
[7]; 31 g ai/ha, scale 0 to 100
  pest or weed control at 31 g/ha: 10%
[7]; [16]
  pest or weed control at 62 g/ha: 15%
[7]; [17]
  pest or weed control at 125 g/ha: 25%
Kochia (Kochia scoparia) [8]; 16 g ai/ha, scale 0 to 100
  pest or weed control at 16 g/ha: 50%
Kochia (Kochia scoparia) [8]; 31 g ai/ha, scale 0 to 100
  pest or weed control at 31 g/ha: 80%
Kochia (Kochia scoparia) [8]; [16]
  pest or weed control at 62 g/ha: 85%
Kochia (Kochia scoparia) [8]; [17]
  pest or weed control at 125 g/ha: 50%
[9]; 16 g ai/ha, scale 0 to 100
  pest or weed control at 16 g/ha: 65%
[9]; 31 g ai/ha, scale 0 to 100
  pest or weed control at 31 g/ha: 70%
[9]; [16]
  pest or weed control at 62 g/ha: 70%
[9]; [17]
  pest or weed control at 125 g/ha: 75%
[10]; 16 g ai/ha, scale 0 to 100
  pest or weed control at 16 g/ha: 5%
[10]; 31 g ai/ha, scale 0 to 100
  pest or weed control at 31 g/ha: 10%
[10]; [16]
  pest or weed control at 62 g/ha: 35%
[10]; [17]
  pest or weed control at 125 g/ha: 50%
[11]; 16 g ai/ha, scale 0 to 100
  pest or weed control at 16 g/ha: 0%
[11]; 31 g ai/ha, scale 0 to 100
  pest or weed control at 31 g/ha: 0%
[11]; [16]
  pest or weed control at 62 g/ha: 5%
[11]; [17]
  pest or weed control at 125 g/ha: 5%
[12]; 16 g ai/ha, scale 0 to 100
  pest or weed control at 16 g/ha: 0%
[12]; 31 g ai/ha, scale 0 to 100
  pest or weed control at 31 g/ha: 0%
[12]; [16]
  pest or weed control at 62 g/ha: 0%
[12]; [17]
  pest or weed control at 125 g/ha: 5%
[13]; 16 g ai/ha, scale 0 to 100
  plant injury at 16 g/ha: 35%
[13]; 31 g ai/ha, scale 0 to 100
  plant injury at 31 g/ha: 40%
[13]; [16]
  plant injury at 62 g/ha: 55%
[13]; [17]
  plant injury at 125 g/ha: 80%
[14]; 16 g ai/ha, scale 0 to 100
  pest or weed control at 16 g/ha: 0%
[14]; 31 g ai/ha, scale 0 to 100
  pest or weed control at 31 g/ha: 0%
[14]; [16]
  pest or weed control at 62 g/ha: 0%
[14]; [17]
  pest or weed control at 125 g/ha: 5%
Soybean (Glycine max); 16 g ai/ha, scale 0 to 100
  plant injury at 16 g/ha: 40%
Soybean (Glycine max); 31 g ai/ha, scale 0 to 100
  plant injury at 31 g/ha: 40%
Soybean (Glycine max); [16]
  plant injury at 62 g/ha: 35%
Soybean (Glycine max); [17]
  plant injury at 125 g/ha: 75%
[15]; 16 g ai/ha, scale 0 to 100
  plant injury at 16 g/ha: 0%
[15]; 31 g ai/ha, scale 0 to 100
  plant injury at 31 g/ha: 0%
[15]; 62 g ai/ha, scale 0 to 100 (0 no effect, 100 complete control), read-out: Wheat plant response rating
  plant injury at 62 g/ha: 0%
[15]; [17]
  plant injury at 125 g/ha: 0%
